Key:
Candida albicans 4711 = assay: standard in vitro screen, minimum inhibiting concentration (MIC) by two-fold serial dilution, in the presence or absence of mouse serum; format: cell-based; details: for MIC 50%serum C.albicans4711: presence of 50% mouse serum; for MIC C.albicans4711: absence of mouse serum
Experimental: The in vitro evaluation of the anti-fungal activity of compounds of the invention was performed on liquid or solid medium by the anti-fungal two-fold serial dilution technique of determining the minimum inhibitory concentration (MIC) of anti-fungal agent that inhibited development of growth after 24 to 48 hours of incubation at 37° C. For example a series of agar plates or broth microdilution panels containing two-fold dilutions of anti-fungal agent were inoculated with a standard culture of a clinically relevant pathogen, in the presence and absence of activated or inactivated serum. The agar plates or broth microdilution panels were then examined for the presence or absence of growth of the fungus and the appropriate MIC values determined. […] Compounds of formula (I) have been tested for antifungal activity in a standard in vitro screen and the minimum inhibiting concentration (MIC;μg/ml) determined for each compound against a relevant strain of Candida albicans in the presence or absence of mouse serum.

[1] = test system: battery of fungal organisms; details: tested against a battery of fungal organisms; cited from earlier work

Row | Compound | MIC 50%serum C.albicans4711 (Candida albicans 4711) [µg/mL] | MIC C.albicans4711 (Candida albicans 4711; hydrochloride) [µg/mL] | MIC 50%serum C.albicans4711 (Candida albicans 4711; hydrochloride) [µg/mL] | antifungal activity [1] | further results
1 | [[1R-(1α,3aβ,4β,4aβ,7β,7aα,8aβ)]8a-[(2R,6R)-(4-allyl-6-methyl-morpholin-2-yl)-oxymethyl]-4-formyl-4,4a,5,6,7,7a,8,8a-octahydro-7-methyl-3-(1-methylethyl)-1,4-methano-s-indacene-3a(1H)-carboxylic acid, phthalidyl ester hydrochloride [Example 4] | 0.25 | – | – | – | –
2 | C=CCN1C[C@H](OC[C@@]23C[C@@H]4[C@H](C)CC[C@H]4[C@@]4(C=O)C[C@@H]2C=C(C(C)C)[C@@]34C(=O)OC(C)OC(=O)OCC)O[C@H](C)C1.Cl (single isomer, unassigned) [Example 3] | – | 62 | 0.06 | – | –
3 | C=CCN1C[C@H](OC[C@@]23C[C@@H]4[C@H](C)CC[C@H]4[C@@]4(C=O)C[C@@H]2C=C(C(C)C)[C@@]34C(=O)OC(C)OC(=O)OCC)O[C@H](C)C1.Cl (single isomer, unassigned) [Example 2] | – | 8 | 0.12 | – | –
4 | [[1R-(1α,3aβ,4β,4aβ,7β,7aα,8aβ)]8a-[(2R,6R)-(4-allyl-6-methyl-morpholin-2-yl)-oxymethyl]-4-formyl-4,4a,5,6,7,7a,8,8a-octahydro-7-methyl-3-(1-methylethyl)-1,4-methano-s-indacene-3a(1H)-carboxylic acid, pivaloyloxymethyl ester hydrochloride [Example 5] | 0.05 | – | – | – | MIC C.albicans4711 (Candida albicans 4711): >125 µg/mL
5 | C/C=C/C=C\C(=O)O[C@H]1[C@H](O)[C@H](OCC23C[C@@H]4[C@H](C)CC[C@H]4C4(C=O)CC2C=C(C(C)C)C34C(=O)O)O[C@H](C)[C@H]1OC (stereo partly drawn) [zofimarin] | – | – | – | only moderately active | –
6 | CO[C@H]1[C@@H](O)[C@H](O)[C@H](OC[C@@]23C[C@@H]4[C@H](C)CC[C@H]4[C@@]4(C=O)CC2C=C(C(C)C)[C@@]34C(=O)O)O[C@@H]1C [sordarin] | – | – | – | only moderately active | –

Reference: US6645960B1, “Antifungal sordaricin derivatives” (Glaxo Wellcome S.A., priority 1999, dated 2003)
